Results: PMC8400246, “Antimicrobial Activity and Action Mechanisms of Arg-Rich Short Analog Peptides Designed from the C-Terminal Loop Region of American Oyster Defensin (AOD)” (Marine Drugs, 2021)
Positions of bridges follow the written chain, without caps; N, C: chain ends. Residues, ends and D or L forms follow the SMILES beside them.

Columns and labels:
several microorganisms = details: analog peptides from the C-terminus of MGD-1; cited from earlier work
From the text: This peptide contains three disulfide bridges linked with six cysteine (Cys) residues, which contribute to its structural stability. For the development of potential AMPs from AOD, the AOD molecule may be inappropriate due to its complex structure containing six Cys residues and long sequence length (38 residues), which complicate the recreation of its structure and increase production costs. In a previou ...

B. subtilis KCTC1021 = assay: Ultrasensitive radial diffusion assay (URDA), MEC; format: cell-based, Bacillus subtilis; details: B. subtilis KCTC1021, Gram +, 10 mM phosphate buffer pH 6.6, 37 °C, X-intercept of clearing zone vs log10 concentration, triplicate, averaged
Method: (§1) The antimicrobial activity of the AOD analogs was assessed with an ultrasensitive radial diffusion assay (URDA), as described previously. The antimicrobial activity of the analogs (from 31.3 to 1000 μg/mL, 5 μL volume) was tested against several bacteria, including Bacillus subtilis KCTC1021, Streptococcus mutans KCCM40105, Aeromonas hydrophila KCTC2358, Escherichia coli D31, E. coli ML35p, Pseudomonas aeruginosa KCTC2004, Salmonella enterica KCTC2514, and Shigella sonnei KCTC2009. In addition, Cutibacterium acnes KCTC3314, Staphylococcus epidermidis KCTC1917, and Candida albicans KCTC7965 were used for the anti-acne activity test. All except C. acnes KCTC3314 were grown overnight for 18 h in tryptic soy broth (TSB; for bacteria) or Sabouraud dextrose broth (SDB; for C. albicans) at the appropriate temperature (25 °C for A. hydrophila, 37 °C for the others). C. acnes was grown for 72 h in reinforced clostridial medium (RCM) under anaerobic conditions with an anaerobic gas-generating pouch (GasPak EZ; Becton Dickinson and Company, Sparks, MD, USA) at 37 °C. Following overnight or 72-h incubation, the bacterial and C. albicans suspensions were diluted to a McFarland turbidity standard level of 0.5 (Vitek Colorimeter #52-1210; Hach, Loveland, CO, USA) corresponding to approximately 10^8 colony forming units (CFU)/mL for bacteria and 10^6 CFU/mL for C. albicans. Diluted bacterial or C. albicans suspension (0.5 mL) was added to 9.5 mL underlay gel containing 5 × 10^6 or 5 × 10^4 CFU/mL in 10 mM phosphate buffer (pH 6.6) with 0.03% TSB (or RCM) or 0.03% SDB and 1% Type I low-electroendosmosis agarose. The AOD analogs were serially diluted two-fold in 5 µL acidified water (0.01% acetic acid; HAc) and each dilution was added to 2.5-mm diameter wells in the 1-mm thick underlay gel. After incubation for 3 h at either 25 °C (for A. hydrophila) or 37 °C (for the others), the bacterial or yeast suspension was overlaid with 10 mL double-strength overlay gel containing 6% TSB, RCM, or SDB with 10 mM phosphate buffer (pH 6.6) in 1% agarose. Plates were incubated for an additional 18–24 h (72 h for C. acnes) and the clearing zone diameters were measured. After subtracting the diameter of the well (2.5 mm), the clearing zone diameter was expressed in units (0.1 mm = 1 U).
(§2) The minimal effective concentration (MEC; μg/mL) of the AOD analogs was calculated as the X-intercept of a plot of clearing zone diameter units against the log10 of the peptide concentration. Piscidin 1, an α-helical AMP isolated from hybrid striped bass (Morone saxatilis × Morone chrysops) was used as a positive control.

C. acnes KCTC3314 = assay: Ultrasensitive radial diffusion assay (URDA), MEC; format: cell-based, Cutibacterium acnes; details: C. acnes KCTC3314, Gram +, anaerobic, RCM, 72 h, 37 °C, triplicate, averaged
Method: as §1, §2

S. epidermidis KCTC1917 = assay: Ultrasensitive radial diffusion assay (URDA), MEC; format: cell-based, Staphylococcus epidermidis; details: S. epidermidis KCTC1917, Gram +, pH 6.6, 37 °C, triplicate, averaged
Method: as §1, §2

S. mutans KCCM40105 = assay: Ultrasensitive radial diffusion assay (URDA), MEC; format: cell-based, Streptococcus mutans; details: S. mutans KCCM40105, Gram +, pH 6.6, 37 °C, triplicate, averaged
Method: as §1, §2

A. hydrophila KCTC2358 = assay: Ultrasensitive radial diffusion assay (URDA), MEC; format: cell-based, Aeromonas hydrophila; details: A. hydrophila KCTC2358, Gram -, pH 6.6, 25 °C, triplicate, averaged
Method: as §1, §2

E. coli D31 = assay: Ultrasensitive radial diffusion assay (URDA), MEC; format: cell-based, Escherichia coli; details: E. coli D31, Gram -, pH 6.6, 37 °C, triplicate, averaged
Method: as §1, §2

E. coli ML35p = assay: Ultrasensitive radial diffusion assay (URDA), MEC; format: cell-based, Escherichia coli; details: Gram -, pH 6.6, 37 °C, triplicate, averaged
Method: as §1, §2

P. aeruginosa KCTC2004 = assay: Ultrasensitive radial diffusion assay (URDA), MEC; format: cell-based, Pseudomonas aeruginosa; details: P. aeruginosa KCTC2004, Gram -, pH 6.6, 37 °C, triplicate, averaged
Method: as §1, §2

S. enterica KCTC2514 = assay: Ultrasensitive radial diffusion assay (URDA), MEC; format: cell-based, Salmonella enterica; details: S. enterica KCTC2514, Gram -, pH 6.6, 37 °C, triplicate, averaged
Method: as §1, §2

S. sonnei KCTC2009 = assay: Ultrasensitive radial diffusion assay (URDA), MEC; format: cell-based, Shigella sonnei; details: S. sonnei KCTC2009, Gram -, pH 6.6, 37 °C, triplicate, averaged
Method: as §1, §2

C. albicans KCTC7965 = assay: Ultrasensitive radial diffusion assay (URDA), MEC; format: cell-based, Candida albicans; details: C. albicans KCTC7965, yeast, SDB, pH 6.6, 37 °C, triplicate, averaged
Method: as §1, §2

100-bp DNA ladder = assay: DNA binding assay (electrophoretic mobility shift); details: 1 μg analog with 0.2 μg 100-bp DNA ladder, 37 °C, 60 min, 1.8% agarose gel with EtBr
Method: To evaluate the binding ability of the AOD analogs to intracellular components, a DNA binding assay was performed as previously described with minor modifications. The DNA-binding ability of the AOD analogs was assessed through observation of the inhibition of migration of DNA bands through agarose gels. A commercial 100-bp DNA ladder (0.2 μg) (Bioneer Corp., Daejeon, South Korea) was mixed with each analog (1 μg) in 0.01% acetic acid, and the resulting mixture was incubated at 37 °C for 60 min and then electrophoresed on 1.8% agarose gels containing 0.5 μg/mL ethidium bromide (EtBr). HAc (0.01%) was used as a negative control.
To determine the concentration required for the interaction of AOD analogs with DNA, a DNA binding assay was performed with various mixing ratios of analog A3 (0.25–1.0 μg/mL) and 100-bp DNA ladder (0.1–0.4 μg), as described above.

[1] = tested on: 100-bp DNA ladder and DNA polymerase; assay: Competitive binding between DNA and DNA polymerase; details: 1 μg peptide, 0.2 μg 100-bp DNA ladder, DNA polymerase 1.0 μL (5 units/μL), 37 °C, 60 min
Method: To assess the preferential binding ability of the AOD analogs to DNA or DNA polymerase, a competitive binding assay was performed. Briefly, AOD analog was added to a reaction mixture containing DNA or DNA polymerase and incubated for 60 min at 37 °C. […] Piscidin 1 and 0.01% HAc were the positive and negative controls, respectively.

[2] = tested on: E. coli DH5α genomic DNA (16S ribosomal gene); assay: DNA amplification (PCR) inhibition assay; format: biochemical, Escherichia coli; details: 1.5 µg of each analog, 0.2 µg E. coli DH5α gDNA, 30 cycles
Method: To determine whether AOD analogs target DNA amplification, the ability of the analogs to inhibit DNA amplification was assessed using E. coli DH5α genomic DNA (gDNA). Total gDNA was extracted using the phenol–chloroform method, as described previously. To assess the inhibition of DNA amplification, 1.5 µg AOD analog was added to the polymerase chain reaction (PCR) mixture. The PCR solution consisted of 0.2 µg purified gDNA, 5 µL 10× PCR buffer with MgCl2, 4 µL of each dNTP at 2.5 mM, 0.25 μL Ex Taq polymerase (Takara Bio, Shiga, Japan), 2.0 pmol each of primers 27F (5′-[…]-3′) and 1492R (5′-TACGGCTACCTTGTTACGA-CTT-3′), and up to 50 µL sterile distilled water. The PCR thermal cycling conditions were as follows: initial denaturation at 94 °C for 5 min; 30 cycles of 94 °C for 30 s, 55 °C for 30 s, and 72 °C for 2 min; and a final extension for 10 min at 72 °C. PCR was conducted using a Type 9700 Thermal Cycler (Perkin-Elmer, Norwalk City, CA, USA). The PCR products were confirmed through 1.5% agarose gel electrophoresis with 0.5 μg/mL EtBr. Piscidin 1 was used as a positive control and 0.01% HAc was used as a negative control.

V. parahaemolyticus gDNA = assay: Bacterial gDNA binding (electrophoretic mobility shift); design: species or system Vibrio parahaemolyticus; details: 1 μg of analog with V. parahaemolyticus gDNA, agarose gel
Method: To evaluate the binding ability of the AOD analogs to intracellular components, a DNA binding assay was performed as previously described with minor modifications. The DNA-binding ability of the AOD analogs was assessed through observation of the inhibition of migration of DNA bands through agarose gels. […] HAc (0.01%) was used as a negative control.

[3] = tested on: human red blood cells (RBCs; blood type B); details: 3% hematocrit, 3.13–100 μg/mL, 60 min, 37 °C, absorbance 542 nm, triplicate

Row | Compound | antimicrobial activity (in words) (several microorganisms) | Minimal Effective Concentration (B. subtilis KCTC1021) [µg/mL] | Minimal Effective Concentration (C. acnes KCTC3314) [µg/mL] | Minimal Effective Concentration (S. epidermidis KCTC1917) [µg/mL] | Minimal Effective Concentration (S. mutans KCCM40105) [µg/mL] | Minimal Effective Concentration (A. hydrophila KCTC2358) [µg/mL] | Minimal Effective Concentration (E. coli D31) [µg/mL] | Minimal Effective Concentration (E. coli ML35p) [µg/mL] | Minimal Effective Concentration (P. aeruginosa KCTC2004) [µg/mL] | Minimal Effective Concentration (S. enterica KCTC2514) [µg/mL] | Minimal Effective Concentration (S. sonnei KCTC2009) [µg/mL] | Minimal Effective Concentration (C. albicans KCTC7965) [µg/mL] | electrophoretic mobility of the DNA (DNA-binding ability) (100-bp DNA ladder) | competitive binding between DNA and DNA polymerase (electrophoretic mobility of DNA) [1] | inhibition of DNA amplification (PCR) [2] | electrophoretic mobility of V. parahaemolyticus gDNA (V. parahaemolyticus gDNA) | hemolytic activity [3]
1 | CKKWKRKRC [Lys-substituted analog peptide derived from …] | stronger antibacterial activity than the parent analog peptide | – | – | – | – | – | – | – | – | – | – | – | – | – | – | – | –
2 | N=C(N)NCCC[C@@H]1NC(=O)[C@H](CCCNC(=N)N)NC(=O)[C@H](CCCNC(=N)N)NC(=O)[C@H](CCCNC(=N)N)NC(=O)[C@H](Cc2c[nH]c3ccccc23)NC(=O)[C@H](CCCNC(=N)N)NC(=O)[C@H](CCCNC(=N)N)NC(=O)[C@@H](N)CSSC[C@@H](C(=O)O)NC1=O [Analog A3] (H-CRRWRRRRC-OH; disulfide 1-9) | – | 0.4 | 53.7 | 4.2 | 1.5 | 3.3 | 5.0 | 6.8 | 3.0 | 6.5 | 5.5 | 54.0 | inhibited | inhibited | partially or completely inhibited | inhibited | –
3 | Piscidin 1: α-helical AMP isolated from hybrid striped bass, used as a positive control (FFHHIFRGIVHVGKTIHRLVTG) [reference compound] | – | 2.3 | – | – | 3.2 | 9.1 | 2.0 | 2.3 | 8.0 | 4.6 | 8.6 | 11.8 | – | preferentially binds to DNA polymerase over DNA | did not inhibit | – | strong hemolysis, even at very low concentrations (from 6.25 μg/mL)
4 | CGGWHRLRC [analog peptide derived from the C-terminus (loop 3) of MGD-1] | potent antimicrobial activity | – | – | – | – | – | – | – | – | – | – | – | – | – | – | – | –
